Target: T1, SIRT1 (Homo sapiens, UniProt Q96EB6)
T1 sequence (Q96EB6 1-747): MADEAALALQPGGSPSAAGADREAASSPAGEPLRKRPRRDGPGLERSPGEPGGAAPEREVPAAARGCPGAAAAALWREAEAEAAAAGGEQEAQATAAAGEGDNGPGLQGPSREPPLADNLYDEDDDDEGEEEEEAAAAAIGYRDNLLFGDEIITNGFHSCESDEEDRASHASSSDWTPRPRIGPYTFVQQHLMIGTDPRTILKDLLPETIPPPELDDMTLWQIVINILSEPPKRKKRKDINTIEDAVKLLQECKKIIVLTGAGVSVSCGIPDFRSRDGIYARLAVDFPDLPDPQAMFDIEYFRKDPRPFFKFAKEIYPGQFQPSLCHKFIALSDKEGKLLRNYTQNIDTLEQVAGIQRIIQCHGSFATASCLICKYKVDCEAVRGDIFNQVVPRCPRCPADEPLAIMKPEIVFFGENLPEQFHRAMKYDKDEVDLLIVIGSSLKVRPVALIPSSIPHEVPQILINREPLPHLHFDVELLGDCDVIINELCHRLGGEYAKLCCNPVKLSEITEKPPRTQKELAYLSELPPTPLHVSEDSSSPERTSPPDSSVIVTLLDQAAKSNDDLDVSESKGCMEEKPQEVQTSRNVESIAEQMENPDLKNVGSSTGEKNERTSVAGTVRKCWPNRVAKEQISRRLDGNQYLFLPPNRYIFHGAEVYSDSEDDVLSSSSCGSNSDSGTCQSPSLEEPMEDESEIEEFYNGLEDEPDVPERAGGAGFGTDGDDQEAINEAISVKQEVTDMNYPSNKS
Experiment: Trp mass spectrometry assay of SIRT1 activity (EC1.5, percent maximum activation)
Type: biochemical
Details: Trp mass spectrometry assay; for TRP Activity (EC1.5): EC1.5 = concentration giving 150% activation of SIRT1
Excerpt: Mass spectrometry based assays were used to identify modulators of SIRT1 activity. […] The peptide was labeled with the fluorophore 5TMR (excitation 540 nm/emission 580 nm) at the C-terminus. The sequence of the peptide substrate was based on p53 with several modifications. In addition, the methionine residue naturally present in the sequence was replaced with the norleucine because the methionine may be susceptible to oxidation during synthesis and purification.
The Trp mass spectrometry assay was conducted as follows. […] The SIRT1 protein was obtained by cloning the SirT1 gene into a T7-promoter containing vector, which was then expressed in BL21(DE3) bacterial cells and purified as described in further detail below. Test compound was added at varying concentrations to this reaction mixture and the resulting reactions were monitored. After the 25 minute incubation with SIRT1, 10 μL of 10% formic acid was added to stop the reaction. The resulting reactions were sealed and frozen for later mass spec analysis. The relative SIRT1 activity was then determined by measuring the amount of O-acetyl-ADP-ribose (OAADPR) formed (or, alternatively, the amount of deacetylated Trp peptide generated) by the NAD-dependent sirtuin deacetylation reaction in the presence of varying concentrations of the test compound versus control reactions lacking the test compound. The degree to which the test agent activated deacetylation by SIRT1 was expressed as EC1.5 (i.e., the concentration of compound required to increase SIRT1 activity by 50% over the control lacking test compound), and Percent Maximum Activation (i.e., the maximum activity relative to control (100%) obtained for the test compound).
This time point was the same as that used for test compounds and, within the linear range, the endpoint represents a change in velocity.
For the above assay, SIRT1 protein was expressed and purified as follows. The SirT1 gene was cloned into a T7-promoter containing vector and transformed into BL21(DE3). The protein was expressed by induction with 1 mM IPTG as an N-terminal His-tag fusion protein at 18° C. overnight and harvested at 30,000×g. Cells were lysed with lysozyme in lysis buffer (50 mM Tris-HCl, 2 mM Tris[2-carboxyethyl]phosphine (TCEP), 10 μM ZnCl2, 200 mM NaCl) and further treated with sonication for 10 min for complete lysis. The protein was purified over a Ni-NTA column (Amersham) and fractions containing pure protein were pooled, concentrated and run over a sizing column (Sephadex S200 26/60 global). The peak containing soluble protein was collected and run on an Ion-exchange column (MonoQ). Gradient elution (200 mM-500 mM NaCl) yielded pure protein. This protein was concentrated and dialyzed against dialysis buffer (20 mM Tris-HCl, 2 mM TCEP) overnight. The protein was aliquoted and frozen at −80° C. until further use.
“NT” means not tested; “ND” means not determinable.

[1] = 0.5 μM peptide substrate, 120 μM βNAD+, 10 nM SIRT1, 25 minutes at 25° C.
[2] = percent maximum activation of SIRT1

SMILES | TRP Activity (EC1.5, concentration of test compound that results in 150% activation of SIRT1) [1] | TRP MAX RESP (percent maximum fold activation) [1] | TRP Activity (EC1.5) | TRP MAX RESP (percent maximum fold activation) [2]
CC(C)(CO)COc1cncc(NC(=O)N2c3nc(-c4cccc(C(F)(F)F)c4)ccc3N3CC[C@H]2C3)n1 [Example 304, (4S)-N-(6-(3-hydroxy-2,2-dimethylpropoxy)pyrazin-2-yl)-7-(3-(trifluoromethyl)phenyl)-3,4-dihydro-1,4-methanopyrido[2,3-b][1,4]diazepine-5(2H)-carboxamide] | A (EC1.5<1 μM) | A (Fold activation ≧150%) |  | 
O=C(Nc1cnccn1)N1c2nc(N3CCOC(C(F)(F)F)C3)ccc2N2CC[C@H]1C2 (single isomer, unassigned) [Example 230] | B (EC1.5 1-25 μM) | A (Fold activation ≧150%) |  | 
Cc1cc(-c2nc3c(cc2Cl)N2CC[C@@H](C2)N3C(=O)Nc2cnc(OC[C@H](O)CO)cn2)ccn1 [Example 29, (4S)-8-chloro-N-(5-((R)-2,3-dihydroxypropoxy)pyrazin-2-yl)-7-(2-methylpyridin-4-yl)-3,4-dihydro-1,4-methanopyrido[2,3-b][1,4]diazepine-5(2H)-carboxamide] |  |  | B (EC1.5 1-25 μM) | A (Fold activation ≧150%)
O=C(Nc1ccc(OC[C@@H](O)CO)nc1)N1c2nc(-c3cccc(C(F)(F)F)c3)c(Cl)cc2N2CC[C@H]1C2 [Example 72, (4S)-8-chloro-N-(6-((S)-2,3-dihydroxypropoxy)pyridin-3-yl)-7-(3-(trifluoromethyl)phenyl)-3,4-dihydro-1,4-methanopyrido[2,3-b][1,4]diazepine-5(2H)-carboxamide] |  |  | A (EC1.5<1 μM) | A (Fold activation ≧150%)
CCOc1cc(-c2ccc3c(n2)N(C(=O)Nc2cnccn2)[C@H]2CCN3C2)ccn1 [Example 140, (4S)-7-(2-ethoxypyridin-4-yl)-N-(pyrazin-2-yl)-3,4-dihydro-1,4-methanopyrido[2,3-b][1,4]diazepine-5(2H)-carboxamide] |  |  | B (EC1.5 1-25 μM) | A (Fold activation ≧150%)
Cc1cc(-c2nc3c(cc2Cl)N2CC[C@@H](C2)N3C(=O)Nc2cncc(OC[C@H](O)CO)n2)ccn1 [Example 97, (4S)-8-chloro-N-(6-((R)-2,3-dihydroxypropoxy)pyrazin-2-yl)-7-(2-methylpyridin-4-yl)-3,4-dihydro-1,4-methanopyrido[2,3-b][1,4]diazepine-5(2H)-carboxamide] |  |  | C (EC1.5>25 μM) | B (Fold Activation <150%)
Cc1cc(-c2nc3c(c(C)c2C)N2CC[C@@H](C2)N3C(=O)Nc2ccccn2)ccn1 [Example 25, (4S)-8,9-dimethyl-7-(2-methylpyridin-4-yl)-N-(pyridin-2-yl)-3,4-dihydro-1,4-methanopyrido[2,3-b][1,4]diazepine-5(2H)-carboxamide] |  |  | B (EC1.5 1-25 μM) | A (Fold activation ≧150%)
Cc1ccc(-c2nc3c(cc2C#N)N2CC[C@@H](C2)N3C(=O)Nc2cccnc2)cn1 [Example 10, (4S)-8-cyano-7-(6-methylpyridin-3-yl)-N-(pyridin-3-yl)-3,4-dihydro-1,4-methanopyrido[2,3-b][1,4]diazepine-5(2H)-carboxamide] |  |  | B (EC1.5 1-25 μM) | A (Fold activation ≧150%)
O=C(Nc1ccnc(OC[C@H](O)CO)n1)N1c2nc(-c3cccc(C(F)(F)F)c3)c(Cl)cc2N2CC[C@H]1C2 [Example 50, (4S)-8-chloro-N-(2-((R)-2,3-dihydroxypropoxy)pyrimidin-4-yl)-7-(3-(trifluoromethyl)phenyl)-3,4-dihydro-1,4-methanopyrido[2,3-b][1,4]diazepine-5(2H)-carboxamide] |  |  | A (EC1.5<1 μM) | A (Fold activation ≧150%)
Cc1cc(-c2ccc3c(n2)N(C(=O)Nc2ccc4c(c2)OCO4)[C@H]2CCN3C2)ccn1 [Example 195, (4S)-N-(benzo[d][1,3]dioxol-5-yl)-7-(2-methylpyridin-4-yl)-3,4-dihydro-1,4-methanopyrido[2,3-b][1,4]diazepine-5(2H)-carboxamide] |  |  | A (EC1.5<1 μM) | A (Fold activation ≧150%)
O=C(Nc1cccc(OCCCO)n1)N1c2nc(-c3cccc(C(F)(F)F)c3)c(Cl)cc2N2CC[C@H]1C2 [Example 67, (4S)-8-chloro-N-(6-(3-hydroxypropoxy)pyridin-2-yl)-7-(3-(trifluoromethyl)phenyl)-3,4-dihydro-1,4-methanopyrido[2,3-b][1,4]diazepine-5(2H)-carboxamide] |  |  | A (EC1.5<1 μM) | A (Fold activation ≧150%)
O=C(Nc1ccnc(OC[C@@H](O)CO)n1)N1c2nc(-c3cccc(C(F)(F)F)c3)c(Cl)cc2N2CC[C@H]1C2 [Example 30, (4S)-8-chloro-N-(2-((S)-2,3-dihydroxypropoxy)pyrimidin-4-yl)-7-(3-(trifluoromethyl)phenyl)-3,4-dihydro-1,4-methanopyrido[2,3-b][1,4]diazepine-5(2H)-carboxamide] |  |  | A (EC1.5<1 μM) | A (Fold activation ≧150%)
Cc1cc(-c2nc3c(cc2Cl)N2CC[C@@H](C2)N3C(=O)Nc2ccnc(OC3CCOCC3)n2)ccn1 [Example 21, (4S)-8-chloro-7-(2-methylpyridin-4-yl)-N-(2-((tetrahydro-2H-pyran-4-yl)oxy)pyrimidin-4-yl)-3,4-dihydro-1,4-methanopyrido[2,3-b][1,4]diazepine-5(2H)-carboxamide] |  |  | C (EC1.5>25 μM) | B (Fold Activation <150%)
Cc1ccc2c(NC(=O)N3c4nc(-c5cccc(C(F)(F)F)c5)c(Cl)cc4N4CC[C@H]3C4)n[nH]c2n1 [Example 88, (4S)-8-chloro-N-(6-methyl-1H-pyrazolo[3,4-b]pyridin-3-yl)-7-(3-(trifluoromethyl)phenyl)-3,4-dihydro-1,4-methanopyrido[2,3-b][1,4]diazepine-5(2H)-carboxamide] |  |  | A (EC1.5<1 μM) | A (Fold activation ≧150%)
O=C(Nc1cnccn1)N1c2nc(N3CCOC(C(F)(F)F)C3)ccc2N2CC[C@H]1C2 (single isomer, unassigned) [Example 231] | A (EC1.5<1 μM) | A (Fold activation ≧150%) |  | 
Cc1cc(-c2nc3c(cc2Br)N2CC[C@@H](C2)N3C(=O)Nc2ccccn2)ccn1 [Example 11, (4S)-8-bromo-7-(2-methylpyridin-4-yl)-N-(pyridin-2-yl)-3,4-dihydro-1,4-methanopyrido[2,3-b][1,4]diazepine-5(2H)-carboxamide] |  |  | B (EC1.5 1-25 μM) | A (Fold activation ≧150%)

From patent US20170355705A1 (GlaxoSmithKline Intellectual Property (No.2) Limited, priority 2014, published 2017)
